# Results published in patent publication US5922891A, “2-substituted 1,8-dihydroxy-9(10H)-anthracenone pharmaceuticals” (priority 1997, dated 1999).
# Assays:
# HaCaT cells = assay: Antiproliferative activity against HaCaT cells (human keratinocyte cell line); type: cell-based; details: 48 h, read-out: AA IC50 (antiproliferative activity)
# Experimental: HaCaT cells were grown in Dulbecco's modified Eagle's medium (DMEM, No. 041-11954A, Gibco) supplemented with 10% fetal calf serum, penicillin (100 U/mL), and streptomycin (100 μg/mL) in a humidified incubator containing 8% CO2 at 37° C. Cells (2.5·10^4 /1.1 ml per well) were seeded on 24-well multidishes and grown in DMEM. After 24 hours of growth, the medium was replaced with fresh medium and a test compound (0.1-5 μM) was added from freshly made stock solutions, which were prepared in DMSO and diluted with DMEM. The final concentration of DMSO in the culture medium was 0.2%. Controls were performed using DMSO or medium alone. Forty-eight hours after addition of a test compound to the culture, the medium was removed and each well was rinsed with phosphate-buffered saline (PBS, 100 μL). The cells were then incubated with sterile 0.5% trypsin, 0.2% EDTA in PBS for 20 minutes at 37° C. The detached cells from each well were suspended in DMEM and dispersed as single cells by gentle pipetting through an Eppendorf pipette. Cell growth was determined directly by counting the keratinocytes on a Neubauer counting chamber using phase contrast microscopy. Inhibition of cell proliferation was calculated by a comparison of the mean value of the test compound (N=3) with the control (N=6-8) activity: (1-test compound/control)×100.
# [1] = Deoxyribose degradation as a measure of hydroxyl radical formation; type: biochemical; details: 75 μM test compound; controls < 0.1
# Experimental: ^c Deoxyribose degradation as a measure of hydroxyl radical formation
# Indicated values are μmoles of malondialdehyde per mmole of deoxyribos
# released by 75 μM test compound (controls < 0.1).
# Degradation of deoxyribose provides a measurement of the amount of hydroxyl radical formation caused by the test compounds. The assay used to determine degradation of 2-deoxy-D-ribose followed generally the procedures of Gutteridge, J. M. C., Biochem. J., 224: 761-767 (1984) and Laughton, et al., Biochem. Pharmacol., 38: 2859-2865 (1989). The following reagents were added to glass tubes in the order and at the final concentrations listed. 0.3 mL kH2 PO4 --KOH buffer, pH 7.4 (30 mM), 0.2 ml double distilled H2 O, 0.2 ml 2-deoxy-D-ribose (2 mM), 0.2 ml FeCl3.6H2 O (0.1 mM), 0.1 ml 2-substituted anthracenone ([…]). Stock solutions of each of the 2-substituted anthracenone compounds were made up fresh before use. Appropriate blanks and controls using an acetronitrile vehicle were performed.
# Final reaction volumes were standardized to 1.0 ml. The reaction mixtures were incubated for 2 hours at 37° C. in a shaking water bath at 50 rpm. 1 ml of 2.8% (w/v) trichloracetic acid and 1 ml of 1% (w/v in 0.05 N NaOH) 2-thiobarbituric acid (TBA) were added, and the samples were heated at 100° C. for 15 minutes and then cooled in an ice bath (5 minutes). 2 ml of each reaction mixture was treated with 0.05 ml of 36% (w/v) HCl and 2 of 1-butanol, followed by vigorous shaking with a vortex mixer (Heidolph) for 15 seconds. The organic layer was separated by centrifugation at 3000 rpm (15 minutes) and absorbance at 532 nm was measured against butanol. Calibration was performed using a malondialdehyde (MDA) standard prepared by hydrolysis of 1,1,3,3-tetraethoxypropane (Gutteridge, J. M. C., Anal. Biochem., 69: 518-526 (1975). TBA reactive material was expressed in terms of μmol MDA per μmol deoxyribose. The results of the assay are provided in Table I.
# 5-LO in bovine PMNL = target: T1, 5-LO in bovine PMNL (Bos taurus, UniProt F1MQ78); assay: Inhibition of 5-lipoxygenase (5-HETE and LTB4 biosynthesis) in Ca-ionophore-stimulated bovine PMNL; type: cell-based; details: N = 3 or more
# T1 construct: The purified PMNLs were suspended at a concentration of; endogenous in cells; host or cells: polymorphonuclear leukocytes isolated from bovine blood
# T1 sequence (F1MQ78 1-674): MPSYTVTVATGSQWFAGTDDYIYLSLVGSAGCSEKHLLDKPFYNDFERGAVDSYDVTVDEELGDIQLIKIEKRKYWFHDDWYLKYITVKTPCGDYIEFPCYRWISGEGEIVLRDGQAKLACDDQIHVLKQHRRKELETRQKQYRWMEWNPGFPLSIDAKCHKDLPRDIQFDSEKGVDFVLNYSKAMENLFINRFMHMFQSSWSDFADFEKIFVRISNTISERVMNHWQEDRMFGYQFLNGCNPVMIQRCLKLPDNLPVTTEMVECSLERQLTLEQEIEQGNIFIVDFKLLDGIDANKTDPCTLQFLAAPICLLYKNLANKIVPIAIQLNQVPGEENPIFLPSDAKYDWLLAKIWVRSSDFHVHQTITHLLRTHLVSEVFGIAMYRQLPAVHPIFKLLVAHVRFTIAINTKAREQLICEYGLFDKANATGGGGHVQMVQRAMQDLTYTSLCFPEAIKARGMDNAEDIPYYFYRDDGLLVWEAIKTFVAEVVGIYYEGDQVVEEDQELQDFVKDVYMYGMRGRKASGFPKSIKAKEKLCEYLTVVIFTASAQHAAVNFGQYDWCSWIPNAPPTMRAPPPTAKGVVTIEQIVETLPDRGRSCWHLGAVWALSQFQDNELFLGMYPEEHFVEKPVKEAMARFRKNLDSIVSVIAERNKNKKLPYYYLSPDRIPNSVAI
# Experimental: Briefly, PMNLs were prepared from sodium EDTA-anticoagulated bovine blood, essentially as described by Walstra, P. et al., (Biochem. Biophys. Acta, 795:499-503 (1984)). Contaminating platelets were removed by repeated centrifugations at 100 g for 20 minutes. […] Cell counts were conducted with a Sysmex micro cell counter CC-130. Preincubation was performed with 2.4 ml of the suspension and 10 μl of a DMSO stock solution of test compounds at the desired concentrations in phosphate buffered saline (PBS) or vehicle control (DMSO at final concentration of 0.4%) for 15 minutes at 37° C. in a shaking water bath at 50 rpm. […] The incubation mixture was held on ice bath for 20 minutes and then centrifuged at 4000 g for 5 minutes at 0° C. The supernatant was diluted with 5 ml of water and passed through a prewashed (10 ml of methanol and 5 ml of water, sequentially) octadecylsilane reversed phase cartridge (Baker). The eicosanoids were eluted with 3 ml of methanol, diluted with 3 ml of water and subjected to reversed phase HPLC analysis using a 250×4 mm column packed with Nucleosil C18 (7 μm particles; Bischoff, Leonberg, Germany). The isocratic elution conditions of LTB4 were tetrahydrofuran (THF)/methanol/water/acetic acid (25+30+45+0.1), adjusted to pH 5.5 with concentrated NH3, at a flow rate of 0.9 ml/min (Kontron 420 pump), monitored at 280 nm with a Kontron 735 LC UV detector. 5-HETE was monitored at 232 nm using methanol/water/acetic acid (77+23+0.1), pH 5.5 and a flow rate 1.0 ml/min. Data were recorded on a MacLab data acquisition system (WissTech, Germany) and analysis was performed using the application Peaks on an Apple Macintosh Quadra 700 computer. Integrated areas of the peaks were compared to a PGB2 internal standard and to external standards of authentic samples. Molar absorption coefficients of Samuelsson et al., Borgeat, P. and B. Samuelsson, (Proc. Natl. Acad. Sci. USA, 76:2148-2152 (1979)), were used for making calculations. Inhibition was calculated by a comparison of the mean value of test compound (n=3) with control (n=6-8) activity: (1-test compound/control)×100.
# See Walstra, P. et al., Biochem Biophys. Acta, 795:499-503 (1984); and Dannhardt et al. J. Pharm. Pharmacol., 44:419-424 (1992). […] (Schroder, J. M., J. Invest. Dermatol., 87:624-629 (1986); Tanzer, et al., Arch. Pharm. (Weinheim), 324:841-846 (1991)).
Structure (SMILES),IC50 (HaCaT cells) [nM],"DD (deoxyribose degradation, malondialdehyde released) [1]",IC50 (5-LO in bovine PMNL) [nM]
"O=C(O)Cc1ccc2c(c1O)C(=O)c1c(O)cccc1C2 [IA, 9,10-Dihydro-1,8-dihydroxy-9-oxo-2-anthracenacetic acid, reference compound]",> 5000,3.74 ± 0.23 μmol of MDA/mmol,–
"COC(=O)Cc1ccc2c(c1O)C(=O)c1c(O)cccc1C2 [IB, Methyl 9,10-Dihydro-1,8-dihydroxy-9-oxo-2-anthracenacetate]",–,–,> 30000
"O=C(Cc1ccc2c(c1O)C(=O)c1c(O)cccc1C2)NO [IC, N-Hydroxy-(9,10-dihydro-1,8-dihydroxy-9-oxo-2-anthracene)acetamide]",–,1.89 ± 0.14 μmol of MDA/mmol,–
"O=C(O)CCc1ccc2c(c1O)C(=O)c1c(O)cccc1C2 [IIA, 3-(9,10-Dihydro-1,8-dihydroxy-9-oxo-2-anthracene) propionic acid, reference compound]",> 5000,2.67 ± 0.23 μmol of MDA/mmol,–
"COC(=O)CCc1ccc2c(c1O)C(=O)c1c(O)cccc1C2 [IIB, Methyl 3-(9,10-Dihydro-1,8-dihydroxy-9-oxo-2-anthracene) propionate]",–,–,> 30000
"O=C(CCc1ccc2c(c1O)C(=O)c1c(O)cccc1C2)NO [IIC, N-Hydroxy-3-(9,10-dihydro-1,8-dihydroxy-9-oxo-2-anthracene)propionamide]",1300,1.67 ± 0.31 μmol of MDA/mmol,–
"O=C(O)CCCc1ccc2c(c1O)C(=O)c1c(O)cccc1C2 [IIIA, 4-(9,10-Dihydro-1,8-dihydroxy-9-oxo-2-anthracene) butanoic acid, reference compound]",> 5000,2.61 ± 0.38 μmol of MDA/mmol,–
"O=C(CCCc1ccc2c(c1O)C(=O)c1c(O)cccc1C2)NO [IIIC, N-Hydroxy-4-(9,10-dihydro-1,8-dihydroxy-9-oxo-2-anthracene)butanamide]",1500,1.46 ± 0.02 μmol of MDA/mmol,–
"O=C1c2c(O)cccc2Cc2ccc(C(Cc3ccccc3)C(=O)O)c(O)c21 (stereo not shown) [IXA, 2-(9,10-Dihydro-1,8-dihydroxy-9-oxo-2-anthracene)-3-phenylpropionic acid]",> 5000,3.25 ± 0.45 μmol of MDA/mmol,–
"O=C1c2c(O)cccc2Cc2ccc(C(Cc3ccccc3)C(=O)NO)c(O)c21 (stereo not shown) [IXC, N-Hydroxy-2-(9,10-dihydro-1,8-dihydroxy-9-oxo-2-anthracene)-3-phenylpropionamide]",1500,–,–
"CN(O)C(=O)C(Cc1ccccc1)c1ccc2c(c1O)C(=O)c1c(O)cccc1C2 (stereo not shown) [IXD, N-Hydroxy-N-methyl-2-(9,10-dihydro-1,8-dihydroxy-9-oxo-2-anthracene)-3-phenylpropionamide]",900,1.68 ± 0.13 μmol of MDA/mmol,–
"CC(C(=O)O)c1ccc2c(c1O)C(=O)c1c(O)cccc1C2 (stereo not shown) [VIIA, 2-(9,10-Dihydro-1,8-dihydroxy-9-oxo-2-anthracene) propionic acid]",> 5000,–,–
"COC(=O)C(C)c1ccc2c(c1O)C(=O)c1c(O)cccc1C2 (stereo not shown) [VIIB, Methyl 2-(9,10-Dihydro-1,8-dihydroxy-9-oxo-2-anthracene) propionate]",–,–,> 30000
"CC(C)C(C(=O)NO)c1ccc2c(c1O)C(=O)c1c(O)cccc1C2 (stereo not shown) [VIIIC, N-Hydroxy-2-(9,10-dihydro-1,8-dihydroxy-9-oxo-2-anthracene)-3-methylbutanamide]",1500,1.66 ± 0.08 μmol of MDA/mmol,–
"O=C(O)c1ccc(Cc2ccc3c(c2O)C(=O)c2c(O)cccc2C3)cc1 [XIA, 4-[(9,10-Dihydro-1,8-dihydroxy-9-oxo-2-anthracene)methyl]benzoic acid, reference compound]",–,–,2000
"COC(=O)c1ccc(Cc2ccc3c(c2O)C(=O)c2c(O)cccc2C3)cc1 [XIB, Methyl 4-[(9,10-Dihydro-1,8-dihydroxy-9-oxo-2-anthracene)methyl]benzoate, reference compound]",–,–,> 30000
"O=C(NO)c1ccc(Cc2ccc3c(c2O)C(=O)c2c(O)cccc2C3)cc1 [XIC, N-Hydroxy-4-[(9,10-dihydro-1,8-dihydroxy-9-oxo-2-anthracene)methyl]benzamide]",1400,–,–
"CN(O)C(=O)c1ccc(Cc2ccc3c(c2O)C(=O)c2c(O)cccc2C3)cc1 [XID, N-Hydroxy-N-methyl-4-[(9,10-dihydro-1,8-dihydroxy-9-oxo-2-anthracene)methyl]benzamide]",–,0.97 ± 0.03 μmol of MDA/mmol,–
"O=C(O)c1ccc(C(=O)c2ccc3c(c2O)C(=O)c2c(O)cccc2C3)cc1 [XIIA, 4-[(9,10-Dihydro-1,8-dihydroxy-9-oxo-2-anthracene)oxomethyl]benzoic acid]",> 5000,1.80 ± 0.14 μmol of MDA/mmol,–
